Here are results for 25 compounds from patent publication US10829496B2, “Thienopyridines and benzothiophenes useful as IRAK4 inhibitors” (BRISTOL-MYERS SQUIBB COMPANY, priority 2017, dated 2020).

Data set [1] concerns the target IRAK4 (Homo sapiens (Human), UniProt Q9NWZ3). As to the kind of experiment: IRAK4 Inhibition Assay. Format: biochemical. As to conditions: ATP 500 μM; IRAK4 0.6 nM; 60 min at room temperature. The method, then: The assays were performed in U-bottom 384-well plates. The final assay volume was 30 μL prepared from 15 μL additions of enzyme and substrates (fluoresceinated peptide and ATP) and test compounds in assay buffer (20 mM HEPES pH 7.2, 10 mM MgCl2, 0.015% Brij 35 and 4 mM DTT). The reaction was initiated by the combination of IRAK4 with substrates and test compounds. The reaction mixture was incubated at room temperature for 60 min. and terminated by adding 45 μL of 35 mM EDTA to each sample. The reaction mixture was analyzed on the Caliper LABCHIP® 3000 (Caliper, Hopkinton, Mass.) by electrophoretic separation of the fluorescent substrate and phosphorylated product. Inhibition data were calculated by comparison to no enzyme control reactions for 100% inhibition and vehicle-only reactions for 0% inhibition. The final concentrations of reagents in the assays are ATP, 500 μM; FL-IPTSPITTTYFFFKKK peptide 1.5 μM; IRAK4, 0.6 nM; and DMSO, 1.6%.

Data set [2] concerns IL-6 levels in human whole blood stimulated with a TLR2 agonist. As to the kind of experiment: IRAK4 Whole Blood Assay (TLR2 agonist lipoteichoic acid-stimulated IL-6). To be noted: 10 μg/mL lipoteichoic acid, 5 hours, IL-6 readout. Format: cell-based. The method, then: Human whole blood containing the anti-coagulant ACD-A was plated in 384-well plate (25 μL/well) and incubated with compounds for 60 minutes at 37° C. in a 5% CO2 incubator. The blood was stimulated with a TLR2 agonist, 10 μg/mL final concentration of lipoteichoic acid (Invivogen, San Diego, Calif.) in 25 μL RPMI (Gibco) for 5 hours in a 5% CO2 incubator. At the end of the incubation, plates were centrifuged at 2300 rpm for 5 minutes. Supernatants were harvested and analyzed for IL-6 levels by Flow Cytometry beads assay (BD Biosciences, San Jose, Calif.).

Data set [3] is described as follows: Caco-2 Permeability Assay. To be noted: human, 3 μM compound, 2 hours at 37° C., direction not given. The data set is classed as in vitro ADME. How it is done: Caco-2 Permeability Assay
Thirteen to 27 days prior to assay, Caco-2 cells were seeded onto collagen-coated polycarbonate filter membranes in 24-well transwell plates at a density of 1.45×10^5 cells/cm^2, approximately 4.8×10^4 cells per well. The cells were grown in a culture medium consisting of DMEM supplemented with 10% fetal bovine serum, 10 mM HEPES, 1% nonessential amino acids, 2 mM L-glutamine, 100 U/mL penicillin-G, and 100 μg/mL streptomycin. The culture medium was replaced every 3 days and the cells were maintained at 37° C. in a 95% relative humidity and 5% CO2 atmosphere. The cells were evaluated for tight junction formation just prior to assay. The test compound was solubilized to 10 mM in 100% DMSO and diluted to 3 μM in assay buffer. Permeability studies were initiated by adding 200 μL assay buffer plus/minus compound to the apical transwell compartment and 600 μL assay buffer plus/minus compound to the basolateral compartment of the 24-well transwell low-binding cluster plate. For apical-to-basolateral (A to B) permeability (absorptive direction), buffer containing compound was placed in the apical compartment (donorwells), while buffer alone was placed in the corresponding basolateral compartments (receiverwells). For basolateral-to-apical (B to A) permeability (secretive direction), buffer containing compound was placed in the basolateral compartment (donor wells), while buffer alone was placed in the corresponding apical compartments (receiver wells). Transwells were then incubated for 2 hours at 37° C. in a 95% relative humidity and 5% CO2 atmosphere with gentle agitation. Following incubation, 100 μL was removed from each apical and basolateral compartment and transferred to 96-well low binding plates that had been previously loaded with 100 μL/well of acetonitrile containing 250 nM propranolol, 250 nM diclofenac, and 500 nM tolbutamide as internal standards. The samples were subsequently analyzed by LC-MS/MS to determine concentrations of compound.
On the technique in general: Caco-2 cells form a polarised layer with tight junctions and transporters.

Bounds are passed on as bounds.

Chain of IRAK4 (Q9NWZ3 whole entry): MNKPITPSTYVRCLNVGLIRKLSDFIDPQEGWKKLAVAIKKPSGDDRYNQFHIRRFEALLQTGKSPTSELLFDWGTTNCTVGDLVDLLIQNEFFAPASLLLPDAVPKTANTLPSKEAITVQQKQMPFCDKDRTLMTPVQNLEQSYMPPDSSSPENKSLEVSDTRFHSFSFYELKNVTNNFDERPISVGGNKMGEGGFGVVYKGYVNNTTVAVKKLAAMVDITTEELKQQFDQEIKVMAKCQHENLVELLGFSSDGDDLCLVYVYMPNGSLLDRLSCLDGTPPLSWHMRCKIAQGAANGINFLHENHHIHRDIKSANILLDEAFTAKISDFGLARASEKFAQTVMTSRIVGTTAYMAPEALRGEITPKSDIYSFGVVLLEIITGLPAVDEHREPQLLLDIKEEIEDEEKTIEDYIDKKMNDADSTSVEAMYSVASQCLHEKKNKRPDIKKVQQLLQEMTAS

As for `COc1nc2c(OC[C@@H]3CCC(=O)N3)csc2cc1C(N)=O` [Example 5, (S)-5-methoxy-3-((5-oxopyrrolidin-2-yl)methoxy)thieno[3,2-b]pyridine-6-carboxamide], the half-inhibitory concentration (IC50) – broadly, the concentration needed to halve the response being measured – in data set [1] is 20.3 nM. Besides, the EC50 (commonly the concentration at which the effect is half-maximal) in data set [2] amounted to 2010 nM. Take `CC[C@@H]1CC(=O)N[C@@H]1COc1csc2cc(C(N)=O)c(OC)cc12` [Example 29]: the IC50 in data set [1] worked out at 0.9 nM. A half-maximal response in data set [2] (EC50) required 363 nM.

Turning to `COc1nc2c(OC[C@@H]3C[C@@H](F)C(=O)N3)csc2cc1C(N)=O` [Example 11, 3-(((2S,4R)-4-fluoro-5-oxopyrrolidin-2-yl)methoxy)-5-methoxythieno[3,2-b]pyridine-6-carboxamide], in data set [1], the IC50 was determined as 4 nM. This compound returned an EC50 in data set [2] of 473 nM. Consider `COc1nc2c(OC[C@H]3NC(=O)[C@H](F)[C@H]3C)csc2cc1C(N)=O` [Example 27, 3-(((2S,3S,4R)-4-fluoro-3-methyl-5-oxopyrrolidin-2-yl)methoxy)-5-methoxythieno[3,2-b]pyridine-6-carboxamide], for which the IC50 in data set [1] was 1.1 nM. Moreover, in data set [3], the Papp – broadly, a coefficient for how fast a substance crosses the barrier – at 2 h, 3 µM was 5.9 ×10⁻⁶ cm/s. Further, in data set [2], the EC50 was 58 nM. Consider `CC[C@@H]1[C@H](F)C(=O)N[C@@H]1COc1csc2cc(C(N)=O)c(OC3CC3)nc12` [Example 24, 5-cyclopropoxy-3-(((2S,3S,4S)-3-ethyl-4-fluoro-5-oxopyrrolidin-2-yl)methoxy)thieno[3,2-b]pyridine-6-carboxamide], for which the IC50 in data set [1] was 20.2 nM. Moreover, the concentration for a half-maximal effect (EC50) in data set [2] was greater than 10000 nM. Regarding `CCC1C[C@@H](COc2csc3cc(C(N)=O)c(OC)nc23)NC1=O` (single isomer, unassigned) [Example 16], in data set [1], the IC50 was 98.1 nM. As to `CC[C@@H]1[C@H](F)C(=O)N[C@@H]1COc1csc2cc(C(N)=O)c(OC)nc12` [Example 2, 3-(((2S,3S,4S)-3-Ethyl-4-fluoro-5-oxopyrrolidin-2-yl)methoxy)-5-methoxythieno[3,2-b]pyridine-6-carboxamide], in data set [1], the IC50 is 1.2 nM. Further, the Papp at 2 h, 3 µM in data set [3] was found to be 7.3 ×10⁻⁶ cm/s. Besides, the half-maximal effective concentration (EC50) in data set [2] was 205 nM. Taken in the same sequence, the figures for `COc1nc2c(OC[C@H]3NC(=O)C(F)(F)[C@H]3C)csc2cc1C(N)=O` [Example 21, 3-(((2S,3S)-4,4-difluoro-3-methyl-5-oxopyrrolidin-2-yl)methoxy)-5-methoxythieno[3,2-b]pyridine-6-carboxamide] were 1.3 nM, 13.6 ×10⁻⁶ cm/s and 127 nM.

As to `COc1nc2c(OC[C@H]3NC(=O)[C@H](F)[C@H]3C3CC3)csc2cc1C(N)=O` [Example 18, 3-(((2S,3S,4R)-3-cyclopropyl-4-fluoro-5-oxopyrrolidin-2-yl)methoxy)-5-methoxythieno[3,2-b]pyridine-6-carboxamide], the half-inhibitory concentration (IC50) in data set [1] was found to be 2.8 nM. The compound further had an EC50 in data set [2] of 962 nM.

Consider `CC[C@H]1[C@@H](COc2csc3cc(C(N)=O)c(OC)nc23)NC(=O)[C@@H]1F` [Example 8, 3-(((2S,3S,4R)-3-ethyl-4-fluoro-5-oxopyrrolidin-2-yl)methoxy)-5-methoxythieno[3,2-b]pyridine-6-carboxamide], for which the IC50 in data set [1] came to 0.7 nM. In data set [3], this compound registered a Papp at 2 h, 3 µM of 4.2 ×10⁻⁶ cm/s. In addition, in data set [2], the concentration for a half-maximal effect (EC50) worked out at 92 nM. `CC[C@@H]1[C@H](F)C(=O)N[C@@H]1COc1c(C)sc2cc(C(N)=O)c(OC)nc12` [Example 22, 3-(((2S,3S,4S)-3-ethyl-4-fluoro-5-oxopyrrolidin-2-yl)methoxy)-5-methoxy-2-methylthieno[3,2-b]pyridine-6-carboxamide]: the half-maximal inhibitory concentration (IC50) in data set [1] was 33.6 nM. In the case of `COc1nc2c(OC[C@H]3NC(=O)C[C@H]3C)csc2cc1C(N)=O` [Example 17, 5-methoxy-3-(((2S,3R)-3-methyl-5-oxopyrrolidin-2-yl)methoxy)thieno[3,2-b]pyridine-6-carboxamide], the concentration for half-maximal inhibition (IC50) in data set [1] came to 6 nM. Also, the EC50 in data set [2] is 893 nM. As for `COc1nc2c(OC[C@H]3NC(=O)[C@@H](F)[C@H]3C)csc2cc1C(N)=O` [Example 28, 3-(((2S,3S,4S)-4-fluoro-3-methyl-5-oxopyrrolidin-2-yl)methoxy)-5-methoxythieno[3,2-b]pyridine-6-carboxamide], in data set [1], the half-maximal inhibitory concentration (IC50) worked out at 13.3 nM. In data set [3], this compound had a Papp at 2 h, 3 µM of 5.8 ×10⁻⁶ cm/s. In data set [2], this compound yielded an EC50 of 736 nM.

Regarding “3-(46S,7R)-7-ethyl-4-oxo-5-azaspiro[2.4]heptan-6-yl)methoxy)-5-methoxythieno[3,2-b]pyridine-6-carboxamide [Example 9]”, the IC50 in data set [1] came to 130 nM. For the compound `COc1cc2c(OC[C@@H]3CCC(=O)N3)csc2nc1C(N)=O` [Example 3, (S)-5-Methoxy-3-((5-oxopyrrolidin-2-yl)methoxy)thieno[2,3-b]pyridine-6-carboxamide], in data set [1], the IC50 was found to be 558 nM. With `CC[C@@H]1OC(=O)N[C@@H]1COc1csc2cc(C(N)=O)c(OC)nc12` [Example 26, 3-(((4R,5S)-5-ethyl-2-oxooxazolidin-4-yl)methoxy)-5-methoxythieno[3,2-b]pyridine-6-carboxamide], the IC50 in data set [1] turned out to be 6.8 nM. This compound also came in with a Papp at 2 h, 3 µM in data set [3] of 3.5 ×10⁻⁶ cm/s. For `CC[C@@H]1CC(=O)N[C@@H]1COc1csc2cc(C(N)=O)c(OC)nc12` [Example 6, 3-(((2S,3R)-3-ethyl-5-oxopyrrolidin-2-yl)methoxy)-5-methoxythieno[3,2-b]pyridine-6-carboxamide], in data set [1], the concentration for half-maximal inhibition (IC50) came out at 1 nM. In addition, the Papp at 2 h, 3 µM in data set [3] worked out at 8.1 ×10⁻⁶ cm/s. The EC50 in data set [2] was 3210 nM. `CC[C@@H]1[C@H](F)C(=O)N[C@@H]1COc1csc2cc(C(N)=O)c(OC)cc12` [Example 4, 3-(((2S,3S,4S)-3-ethyl-4-fluoro-5-oxopyrrolidin-2-yl)methoxy)-5-methoxybenzo[b]thiophene-6-carboxamide]: in data set [1], the IC50 amounted to 0.4 nM. For the same compound, the Papp at 2 h, 3 µM in data set [3] was determined as 8.5 ×10⁻⁶ cm/s. Further, in data set [2], the EC50 turned out to be 153 nM. As for `COc1nc2c(OC[C@H]3NC(=O)C[C@H]3C(F)F)csc2cc1C(N)=O` [Example 12, 3-(((2S,3R)-3-(difluoromethyl)-5-oxopyrrolidin-2-yl)methoxy)-5-methoxythieno[3,2-b]pyridine-6-carboxamide], the IC50 in data set [1] was found to be 2.5 nM. In data set [2], this compound registered a 50% effective concentration (EC50) of 261 nM. As to `COc1nc2c(OC[C@@H]3CCC(=O)N3)c(C)sc2cc1C(N)=O` [Example 25, (S)-5-methoxy-2-methyl-3-((5-oxopyrrolidin-2-yl)methoxy)thieno[3,2-b]pyridine-6-carboxamide], the concentration for half-maximal inhibition (IC50) in data set [1] turned out to be 128 nM. Take `COc1nc2c(OC[C@@H]3CC(C)C(=O)N3)csc2cc1C(N)=O` (single isomer, unassigned) [Example 14]: in data set [1], the IC50 was 459 nM. On the same count and under the same terms, to `CCC1C[C@@H](COc2csc3cc(C(N)=O)c(OC)nc23)NC1=O` (single isomer, unassigned) [Example 15] belongs 63.4 nM. Regarding `CC[C@@H]1CC(=O)N[C@@H]1COc1csc2cc(C(N)=O)c(OC3CC3)nc12` [Example 20, 5-cyclopropoxy-3-(((2S,3R)-3-ethyl-5-oxopyrrolidin-2-yl)methoxy)thieno[3,2-b]pyridine-6-carboxamide], the IC50 in data set [1] stood at 19.1 nM. In data set [2], this compound returned an EC50 of 473 nM. On to `COc1nc2c(OCC3COCC(=O)N3)csc2cc1C(N)=O` (racemic) [Example 7, 5-methoxy-3-((5-oxomorpholin-3-yl)methoxy)thieno[3,2-b]pyridine-6-carboxamide], for which the IC50 in data set [1] amounted to 615 nM.

On to `COc1nc2c(OC[C@@H]3CC(C)C(=O)N3)csc2cc1C(N)=O` (single isomer, unassigned) [Example 13], for which, in data set [1], the IC50 was determined as 36.2 nM.
